Assay results published in PubChem BioAssay (NCI).
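Cultured in 96-well plates, cells were exposed to test compound for 48 hours across five concentrations. TGI denotes the concentration required for complete inhibition of growth.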

How the values were obtained:
Assay in all cases: NCI-60 cell line screen, 48 h
[1] = tested on: 786-0 renal
[2] = tested on: A498 renal
[3] = tested on: A549 NSCLC
[4] = tested on: ACHN renal
[5] = tested on: BT-549 breast
[6] = tested on: CAKI-1 renal
[7] = tested on: CCRF-CEM leukemia
[8] = tested on: COLO 205 colon
[9] = tested on: DU-145 prostate
[10] = tested on: EKVX NSCLC
[11] = tested on: HCC-2998 colon
[12] = tested on: HCT-116 colon
[13] = tested on: HCT-15 colon
[14] = tested on: HOP-62 NSCLC
[15] = tested on: HS 578T breast
[16] = tested on: HT29 colon
[17] = tested on: IGROV1 ovarian
[18] = tested on: K-562 leukemia
[19] = tested on: KM12 colon
[20] = tested on: LOX IMVI melanoma
[21] = tested on: M14 melanoma
[22] = tested on: MALME-3M melanoma
[23] = tested on: MCF7 breast
[24] = tested on: MDA-MB-231 breast
[25] = tested on: MDA-MB-435
[26] = tested on: MDA-N
[27] = tested on: MOLT-4 leukemia
[28] = tested on: NCI-H23 lung
[29] = tested on: NCI-H460 lung
[30] = tested on: NCI-H522 lung
[31] = tested on: NCI/ADR-RES ovarian
[32] = tested on: OVCAR-3 ovarian
[33] = tested on: OVCAR-4 ovarian
[34] = tested on: OVCAR-5 ovarian
[35] = tested on: OVCAR-8 ovarian
[36] = tested on: PC-3 prostate
[37] = tested on: RPMI-8226 leukemia
[38] = tested on: RXF 393 renal
[39] = tested on: SF-268 CNS
[40] = tested on: SF-295 CNS
[41] = tested on: SF-539 CNS
[42] = tested on: SK-MEL-2 melanoma
[43] = tested on: SK-MEL-28 melanoma
[44] = tested on: SK-MEL-5 melanoma
[45] = tested on: SK-OV-3 ovarian
[46] = tested on: SN12C renal
[47] = tested on: SNB-19 CNS
[48] = tested on: SR leukemia
[49] = tested on: SW-620 colon
[50] = tested on: T-47D breast
[51] = tested on: TK-10 renal
[52] = tested on: U251 CNS
[53] = tested on: UACC-257 melanoma
[54] = tested on: UACC-62 melanoma
[55] = tested on: UO-31 renal
[56] = tested on: HOP-92 NSCLC
[57] = tested on: NCI-H226 lung
[58] = tested on: SNB-75 CNS
[59] = tested on: HL-60(TB) leukemia

Cc1ccc(S(=O)(=O)NCCN(CCNS(=O)(=O)c2ccc(C)cc2)S(=O)(=O)c2ccc(C)cc2)cc1
TGI [1]: > 100 µM
TGI [2]: > 100 µM
TGI [3]: > 100 µM
TGI [4]: > 100 µM
TGI [5]: > 100 µM
TGI [6]: > 100 µM
TGI [7]: > 100 µM
TGI [8]: > 100 µM
TGI [9]: > 100 µM
TGI [10]: > 100 µM
TGI [11]: > 100 µM
TGI [12]: > 100 µM
TGI [13]: > 100 µM
TGI [14]: > 100 µM
TGI [15]: > 100 µM
TGI [16]: > 100 µM
TGI [17]: > 100 µM
TGI [18]: > 100 µM
TGI [19]: > 100 µM
TGI [20]: > 100 µM
TGI [21]: > 100 µM
TGI [22]: 60 µM
TGI [23]: > 100 µM
TGI [24]: > 100 µM
TGI [25]: > 100 µM
TGI [26]: > 100 µM
TGI [27]: > 100 µM
TGI [28]: > 100 µM
TGI [29]: > 100 µM
TGI [30]: > 100 µM
TGI [31]: > 100 µM
TGI [32]: > 100 µM
TGI [33]: 56 µM
TGI [34]: > 100 µM
TGI [35]: > 100 µM
TGI [36]: > 100 µM
TGI [37]: > 100 µM
TGI [38]: > 100 µM
TGI [39]: > 100 µM
TGI [40]: > 100 µM
TGI [41]: > 100 µM
TGI [42]: > 100 µM
TGI [43]: > 100 µM
TGI [44]: > 100 µM
TGI [45]: > 100 µM
TGI [46]: > 100 µM
TGI [47]: > 100 µM
TGI [48]: > 100 µM
TGI [49]: > 100 µM
TGI [50]: > 100 µM
TGI [51]: > 100 µM
TGI [52]: > 100 µM
TGI [53]: > 100 µM
TGI [54]: > 100 µM
TGI [55]: > 100 µM

O=C1CC2(CCC(O)(c3cccc4ccccc34)C(C(=O)c3cccc4ccccc34)C2)C(=O)c2ccccc2N1 (centres undefined)
TGI [2]: > 100 µM
TGI [3]: > 100 µM
TGI [5]: > 100 µM
TGI [6]: > 100 µM
TGI [8]: > 100 µM
TGI [9]: > 100 µM
TGI [10]: > 100 µM
TGI [11]: > 100 µM
TGI [12]: > 100 µM
TGI [13]: > 100 µM
TGI [14]: 40.4 µM
TGI [56]: 36.7 µM
TGI [15]: 47.9 µM
TGI [16]: > 100 µM
TGI [17]: > 100 µM
TGI [18]: > 100 µM
TGI [20]: > 100 µM
TGI [21]: > 100 µM
TGI [22]: > 100 µM
TGI [23]: > 100 µM
TGI [24]: 68 µM
TGI [25]: > 100 µM
TGI [26]: > 100 µM
TGI [27]: > 100 µM
TGI [57]: > 100 µM
TGI [28]: > 100 µM
TGI [29]: 23.6 µM
TGI [31]: > 100 µM
TGI [32]: > 100 µM
TGI [34]: > 100 µM
TGI [35]: > 100 µM
TGI [36]: > 100 µM
TGI [38]: 36.9 µM
TGI [39]: 91.6 µM
TGI [40]: > 100 µM
TGI [41]: > 100 µM
TGI [42]: > 100 µM
TGI [43]: > 100 µM
TGI [44]: > 100 µM
TGI [45]: > 100 µM
TGI [46]: > 100 µM
TGI [47]: 47.7 µM
TGI [58]: 34.3 µM
TGI [48]: > 100 µM
TGI [49]: > 100 µM
TGI [50]: > 100 µM
TGI [51]: > 100 µM
TGI [52]: > 100 µM
TGI [53]: > 100 µM
TGI [54]: > 100 µM
TGI [55]: > 100 µM

CCC1([N+](=O)[O-])CC2C=CC1C2 (centres undefined)
TGI [1]: > 100 µM
TGI [2]: > 100 µM
TGI [3]: > 100 µM
TGI [4]: > 100 µM
TGI [5]: > 100 µM
TGI [6]: > 100 µM
TGI [7]: > 100 µM
TGI [8]: > 100 µM
TGI [9]: > 100 µM
TGI [10]: > 100 µM
TGI [12]: > 100 µM
TGI [13]: > 100 µM
TGI [59]: > 100 µM
TGI [14]: > 100 µM
TGI [56]: > 100 µM
TGI [15]: > 100 µM
TGI [16]: > 100 µM
TGI [17]: > 100 µM
TGI [18]: > 100 µM
TGI [19]: > 100 µM
TGI [20]: > 100 µM
TGI [21]: > 100 µM
TGI [22]: > 100 µM
TGI [23]: > 100 µM
TGI [24]: > 100 µM
TGI [25]: > 100 µM
TGI [26]: > 100 µM
TGI [27]: > 100 µM
TGI [57]: > 100 µM
TGI [28]: > 100 µM
TGI [29]: > 100 µM
TGI [30]: > 100 µM
TGI [31]: > 100 µM
TGI [32]: > 100 µM
TGI [33]: > 100 µM
TGI [34]: > 100 µM
TGI [35]: > 100 µM
TGI [36]: > 100 µM
TGI [37]: > 100 µM
TGI [38]: > 100 µM
TGI [39]: > 100 µM
TGI [40]: > 100 µM
TGI [41]: > 100 µM
TGI [42]: > 100 µM
TGI [43]: > 100 µM
TGI [44]: > 100 µM
TGI [45]: > 100 µM
TGI [46]: > 100 µM
TGI [47]: > 100 µM
TGI [58]: > 100 µM
TGI [48]: > 100 µM
TGI [49]: > 100 µM
TGI [50]: > 100 µM
TGI [51]: > 100 µM
TGI [52]: > 100 µM
TGI [53]: > 100 µM
TGI [54]: > 100 µM
TGI [55]: > 100 µM
